Test system: A549
Assay: Antitumor activity against human A549 cells assessed as cell growth at 10 uM after 48 hrs by sulforhodamine B assay
Assay type: functional
Conditions: A549, 48 h, read-out: Activity
Compound `CN1C/C(=C\c2ccc(Cl)cc2)C(=O)[C@]2(C1)[C@@H](c1ccc(Cl)cc1)CN(C)[C@@]21C(=O)N(C)c2ccccc21` has a growth at 10 µM of 70%.

Test system: HOP-92
Assay: Antitumor activity against human HOP92 cells assessed as cell growth at 10 uM after 48 hrs by sulforhodamine B assay
Assay type: functional
Conditions: HOP-92, 48 h, read-out: Activity
Compound `CN1C/C(=C\c2ccc(Cl)cc2)C(=O)[C@]2(C1)[C@@H](c1ccc(Cl)cc1)CN(C)[C@@]21C(=O)N(C)c2ccccc21` has a growth at 10 µM of 61.6%.

Test system: NCI-H226
Assay: Antitumor activity against human NCI-H226 cells assessed as cell growth at 10 uM after 48 hrs by sulforhodamine B assay
Assay type: functional
Conditions: NCI-H226, 48 h, read-out: Activity
Work on `CN1C/C(=C\c2ccc(Cl)cc2)C(=O)[C@]2(C1)[C@@H](c1ccc(Cl)cc1)CN(C)[C@@]21C(=O)N(C)c2ccccc21` yielded a growth at 10 µM of 58.6%.

Test system: NCI-H23
Assay: Antitumor activity against human NCI-H23 cells assessed as cell growth at 10 uM after 48 hrs by sulforhodamine B assay
Assay type: functional
Conditions: NCI-H23, 48 h, read-out: Activity
`CN1C/C(=C\c2ccc(Cl)cc2)C(=O)[C@]2(C1)[C@@H](c1ccc(Cl)cc1)CN(C)[C@@]21C(=O)N(C)c2ccccc21` showed a growth at 10 µM of 33.9%.

Test system: NCI-H460
Assay: Antitumor activity against human NCI-H460 cells assessed as cell growth at 10 uM after 48 hrs by sulforhodamine B assay
Assay type: functional
Conditions: NCI-H460, 48 h, read-out: Activity
`CN1C/C(=C\c2ccc(Cl)cc2)C(=O)[C@]2(C1)[C@@H](c1ccc(Cl)cc1)CN(C)[C@@]21C(=O)N(C)c2ccccc21` gave a growth at 10 µM of 71.5%.

Test system: KM12
Assay: Antitumor activity against human KM12 cells assessed as cell growth at 10 uM after 48 hrs by sulforhodamine B assay
Assay type: functional
Conditions: KM12, 48 h, read-out: Activity
Compound `CN1C/C(=C\c2ccc(Cl)cc2)C(=O)[C@]2(C1)[C@@H](c1ccc(Cl)cc1)CN(C)[C@@]21C(=O)N(C)c2ccccc21` has a growth at 10 µM of 78.7%.

Test system: SW-620
Assay: Antitumor activity against human SW620 cells assessed as cell growth at 10 uM after 48 hrs by sulforhodamine B assay
Assay type: functional
Conditions: SW-620, 48 h, read-out: Activity
`CN1C/C(=C\c2ccc(Cl)cc2)C(=O)[C@]2(C1)[C@@H](c1ccc(Cl)cc1)CN(C)[C@@]21C(=O)N(C)c2ccccc21` gave a growth at 10 µM of 68.1%.

Test system: not listed separately
Assay: Antitumor activity against human Hs 578T cells assessed as cell growth at 10 uM after 48 hrs by sulforhodamine B assay
Assay type: functional
Conditions: read-out: Activity
Work on `CN1C/C(=C\c2ccc(Cl)cc2)C(=O)[C@]2(C1)[C@@H](c1ccc(Cl)cc1)CN(C)[C@@]21C(=O)N(C)c2ccccc21` yielded a growth at 10 µM of 97.3%.

Test system: MCF7
Assay: Antitumor activity against human MCF7 cells assessed as cell growth at 10 uM after 48 hrs by sulforhodamine B assay
Assay type: functional
Conditions: MCF7, 48 h, read-out: Activity
Work on `CN1C/C(=C\c2ccc(Cl)cc2)C(=O)[C@]2(C1)[C@@H](c1ccc(Cl)cc1)CN(C)[C@@]21C(=O)N(C)c2ccccc21` yielded a growth at 10 µM of 86.4%.

Test system: NCI/ADR-RES
Assay: Antitumor activity against human NCI/ADR-RES cells assessed as cell growth at 10 uM after 48 hrs by sulforhodamine B assay
Assay type: functional
Conditions: read-out: Activity
`CN1C/C(=C\c2ccc(Cl)cc2)C(=O)[C@]2(C1)[C@@H](c1ccc(Cl)cc1)CN(C)[C@@]21C(=O)N(C)c2ccccc21` gave a growth at 10 µM of 56.9%.

Test system: OVCAR-4
Assay: Antitumor activity against human OVCAR4 cells assessed as cell growth at 10 uM after 48 hrs by sulforhodamine B assay
Assay type: functional
Conditions: OVCAR-4, 48 h, read-out: Activity
With `CN1C/C(=C\c2ccc(Cl)cc2)C(=O)[C@]2(C1)[C@@H](c1ccc(Cl)cc1)CN(C)[C@@]21C(=O)N(C)c2ccccc21` the growth at 10 µM was 43.1%.

Test system: OVCAR-5
Assay: Antitumor activity against human OVCAR5 cells assessed as cell growth at 10 uM after 48 hrs by sulforhodamine B assay
Assay type: functional
Conditions: OVCAR-5, 48 h, read-out: Activity
`CN1C/C(=C\c2ccc(Cl)cc2)C(=O)[C@]2(C1)[C@@H](c1ccc(Cl)cc1)CN(C)[C@@]21C(=O)N(C)c2ccccc21` showed a growth at 10 µM of 87.7%.

Test system: OVCAR-8
Assay: Antitumor activity against human OVCAR8 cells assessed as cell growth at 10 uM after 48 hrs by sulforhodamine B assay
Assay type: functional
Conditions: OVCAR-8, 48 h, read-out: Activity
In the case of `CN1C/C(=C\c2ccc(Cl)cc2)C(=O)[C@]2(C1)[C@@H](c1ccc(Cl)cc1)CN(C)[C@@]21C(=O)N(C)c2ccccc21`, the growth at 10 µM is reported as 79.5%.

Test system: SK-OV-3
Assay: Antitumor activity against human SKOV3 cells assessed as cell growth at 10 uM after 48 hrs by sulforhodamine B assay
Assay type: functional
Conditions: SK-OV-3, 48 h, read-out: Activity
Work on `CN1C/C(=C\c2ccc(Cl)cc2)C(=O)[C@]2(C1)[C@@H](c1ccc(Cl)cc1)CN(C)[C@@]21C(=O)N(C)c2ccccc21` yielded a growth at 10 µM of 85.2%.

Test system: HL-60(TB)
Assay: Antitumor activity against human HL-60(TB) cells assessed as cell growth at 10 uM after 48 hrs by sulforhodamine B assay
Assay type: functional
Conditions: HL-60, 48 h, read-out: Activity
`CN1C/C(=C\c2ccc(Cl)cc2)C(=O)[C@]2(C1)[C@@H](c1ccc(Cl)cc1)CN(C)[C@@]21C(=O)N(C)c2ccccc21` gave a growth at 10 µM of 16.6%.

Test system: MOLT-4
Assay: Antitumor activity against human MOLT4 cells assessed as cell growth at 10 uM after 48 hrs by sulforhodamine B assay
Assay type: functional
Conditions: MOLT-4, 48 h, read-out: Activity
With `CN1C/C(=C\c2ccc(Cl)cc2)C(=O)[C@]2(C1)[C@@H](c1ccc(Cl)cc1)CN(C)[C@@]21C(=O)N(C)c2ccccc21` the growth at 10 µM was 43.2%.

Test system: not listed separately
Assay: Antitumor activity against human […] cells assessed as cell growth at 10 uM after 48 hrs by sulforhodamine B assay
Assay type: functional
Conditions: read-out: Activity
Work on `CN1C/C(=C\c2ccc(Cl)cc2)C(=O)[C@]2(C1)[C@@H](c1ccc(Cl)cc1)CN(C)[C@@]21C(=O)N(C)c2ccccc21` yielded a growth at 10 µM of 38%.

Test system: 786-0
Assay: Antitumor activity against human 786-0 cells assessed as cell growth at 10 uM after 48 hrs by sulforhodamine B assay
Assay type: functional
Conditions: 786-0, 48 h, read-out: Activity
For `CN1C/C(=C\c2ccc(Cl)cc2)C(=O)[C@]2(C1)[C@@H](c1ccc(Cl)cc1)CN(C)[C@@]21C(=O)N(C)c2ccccc21`, the growth at 10 µM was 73.9%.

— ChEMBL document CHEMBL1138574, “Regioselective synthesis and stereochemical structure of anti-tumor active dispiro[3H-indole-3,2'-pyrrolidine-3',3''-piperidine]-2(1H),4''-diones” (2009)
